According to patent EP4745137A1 (Gluetacs Therapeutics (Shanghai) Co., Ltd., priority 2023, dated 2025):

Assays:
Assay type in all cases: cell-based
Settings in all cases: 24 hours of compound treatment
WEE1 = molecular target: T1, WEE1 (Homo sapiens, UniProt P30291+Q96SW2); experiment: Western-blot assay of substrate protein degradation in hPBMCs, WEE1
T1 construct: endogenous in cells; host or cells: hPBMCs (Milecell Biotechnologies)
Protocol: (§1) After 24 hours of compounds treatment, cells were harvested and lysed in RIPA protein lysate containing protease inhibitors on ice for 30 min, followed by centrifugation. The supernatant was aspirated as the extracted total cell protein. The protein concentration of the supernatant was determined using the conventional BCA (Bicinchoninic Acid) assay. • (2) To the collected supernatant, 5X SDS sample loading buffer was added, followed by denaturation at 95°C for 5 minutes. The denatured samples were then separated by SDS-PAGE electrophoresis on a polyacrylamide gel, transferred onto a nitrocellulose membrane (0.45 µm NC membrane), blocked with blocking buffer at room temperature for 1 hour, and subjected to antibody incubation and development procedures according to the antibody manufacturer's instructions (Cell Signaling Technology Company). […]
(§2) Target protein remaining (%) refers to the percentage of target protein remaining in cells after treatment with protein degrader compounds.
(§3) Calculation method for target protein remaining (%): Use ImageJ software to measure grayscale values of Western blot bands from drug (protein degrader)-treated samples. The grayscale value of drug-treated bands is divided by that of internal control protein bands, and the resulting quotient is normalized to obtain the relative percentage of remaining target protein after protein degrader treatment. Target protein degradation rate(%) = 1−target protein remaining(%). [formula]

IKZF1 = molecular target: T2, IKZF1 (Homo sapiens, UniProt Q13422+Q96SW2); experiment: Western-blot assay of substrate protein degradation in hPBMCs, IKZF1
T2 construct: endogenous in cells; host or cells: hPBMCs (Milecell Biotechnologies)
Protocol: as §1, §2, §3

IKZF2 = molecular target: T3, IKZF2 (Homo sapiens, UniProt Q96SW2+Q9UKS7); experiment: Western-blot assay of substrate protein degradation in hPBMCs, IKZF2
T3 construct: endogenous in cells; host or cells: hPBMCs (Milecell Biotechnologies)
Protocol: as §1, §2, §3

IKZF3 = molecular target: T4, IKZF3 (Homo sapiens, UniProt Q96SW2+Q9UKT9); experiment: Western-blot assay of substrate protein degradation in hPBMCs, IKZF3
T4 construct: endogenous in cells; host or cells: hPBMCs (Milecell Biotechnologies)
Protocol: as §1, §2, §3

CK1α = molecular target: T5, CK1α (Homo sapiens, UniProt P48729+Q96SW2); experiment: Western-blot assay of substrate protein degradation in hPBMCs, CK1α
T5 construct: endogenous in cells; host or cells: hPBMCs (Milecell Biotechnologies)
Protocol: as §1, §2, §3

GSPT1 = molecular target: T6, GSPT1 (Homo sapiens, UniProt P15170+Q96SW2); experiment: Western-blot assay of substrate protein degradation in hPBMCs, GSPT1
T6 construct: endogenous in cells; host or cells: hPBMCs (Milecell Biotechnologies)
Protocol: as §1, §2, §3

[1] = compounds tested at 50 nM and 500 nM (concentration of the table not stated)
[2] = 50 nM and 500 nM tested (concentration behind the class not stated)

T1 sequence (P30291 whole entry): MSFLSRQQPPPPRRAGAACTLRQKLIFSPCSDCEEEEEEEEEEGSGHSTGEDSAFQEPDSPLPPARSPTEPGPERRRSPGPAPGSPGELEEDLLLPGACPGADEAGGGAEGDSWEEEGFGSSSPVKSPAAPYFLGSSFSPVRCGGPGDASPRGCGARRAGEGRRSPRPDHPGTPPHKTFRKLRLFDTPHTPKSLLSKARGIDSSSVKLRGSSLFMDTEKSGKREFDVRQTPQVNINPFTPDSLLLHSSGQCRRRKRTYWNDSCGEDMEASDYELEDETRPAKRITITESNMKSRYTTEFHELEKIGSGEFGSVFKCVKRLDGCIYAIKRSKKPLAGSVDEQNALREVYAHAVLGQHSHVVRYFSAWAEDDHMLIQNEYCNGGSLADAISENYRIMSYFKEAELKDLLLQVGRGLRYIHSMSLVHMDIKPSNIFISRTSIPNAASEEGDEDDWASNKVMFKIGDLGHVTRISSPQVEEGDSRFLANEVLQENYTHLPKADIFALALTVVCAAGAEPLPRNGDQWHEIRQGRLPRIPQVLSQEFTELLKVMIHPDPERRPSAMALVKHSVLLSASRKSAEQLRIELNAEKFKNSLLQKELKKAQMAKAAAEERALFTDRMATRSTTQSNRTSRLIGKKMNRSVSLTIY
T1 sequence (Q96SW2 whole entry): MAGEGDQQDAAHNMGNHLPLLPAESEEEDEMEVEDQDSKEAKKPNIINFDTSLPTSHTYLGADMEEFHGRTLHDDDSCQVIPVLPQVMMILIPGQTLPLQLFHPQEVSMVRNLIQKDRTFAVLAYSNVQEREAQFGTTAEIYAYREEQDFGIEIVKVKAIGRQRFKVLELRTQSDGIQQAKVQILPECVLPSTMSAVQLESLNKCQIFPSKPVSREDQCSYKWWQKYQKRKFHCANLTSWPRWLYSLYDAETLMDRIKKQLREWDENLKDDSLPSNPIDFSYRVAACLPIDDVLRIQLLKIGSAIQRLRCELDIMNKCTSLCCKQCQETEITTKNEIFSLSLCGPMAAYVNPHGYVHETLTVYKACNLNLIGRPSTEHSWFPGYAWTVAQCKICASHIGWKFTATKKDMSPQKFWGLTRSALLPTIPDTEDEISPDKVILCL
T1 sequence (Q16531 whole entry partner): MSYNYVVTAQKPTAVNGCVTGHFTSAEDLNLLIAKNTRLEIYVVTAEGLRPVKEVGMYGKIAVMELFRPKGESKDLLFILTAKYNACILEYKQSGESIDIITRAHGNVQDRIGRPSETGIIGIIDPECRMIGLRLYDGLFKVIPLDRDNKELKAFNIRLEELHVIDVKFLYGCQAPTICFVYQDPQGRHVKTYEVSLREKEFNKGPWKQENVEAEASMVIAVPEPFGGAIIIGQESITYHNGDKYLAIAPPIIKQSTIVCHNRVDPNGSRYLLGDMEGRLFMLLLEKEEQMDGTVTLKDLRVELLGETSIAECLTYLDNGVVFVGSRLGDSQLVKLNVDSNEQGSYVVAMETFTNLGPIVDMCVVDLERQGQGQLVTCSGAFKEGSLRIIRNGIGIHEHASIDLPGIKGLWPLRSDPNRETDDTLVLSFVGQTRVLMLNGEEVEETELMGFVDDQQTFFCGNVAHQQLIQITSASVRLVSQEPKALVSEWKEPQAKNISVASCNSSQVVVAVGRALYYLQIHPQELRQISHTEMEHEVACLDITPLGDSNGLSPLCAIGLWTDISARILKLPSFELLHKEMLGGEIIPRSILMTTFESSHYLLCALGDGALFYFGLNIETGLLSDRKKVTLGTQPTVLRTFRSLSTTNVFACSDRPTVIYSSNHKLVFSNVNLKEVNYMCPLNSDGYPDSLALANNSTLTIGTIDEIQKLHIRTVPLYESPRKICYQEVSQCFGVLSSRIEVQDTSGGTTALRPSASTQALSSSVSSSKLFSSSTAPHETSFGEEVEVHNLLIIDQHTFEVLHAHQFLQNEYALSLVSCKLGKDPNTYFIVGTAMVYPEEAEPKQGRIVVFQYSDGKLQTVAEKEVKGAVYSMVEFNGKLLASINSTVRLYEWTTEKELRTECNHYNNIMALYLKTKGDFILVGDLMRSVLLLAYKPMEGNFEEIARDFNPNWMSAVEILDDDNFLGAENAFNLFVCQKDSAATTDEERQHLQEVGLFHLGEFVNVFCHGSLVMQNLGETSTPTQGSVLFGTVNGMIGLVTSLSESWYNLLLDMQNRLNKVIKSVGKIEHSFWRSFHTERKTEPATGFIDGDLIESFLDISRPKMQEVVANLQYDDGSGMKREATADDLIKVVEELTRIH
T5 sequence (P48729 whole entry): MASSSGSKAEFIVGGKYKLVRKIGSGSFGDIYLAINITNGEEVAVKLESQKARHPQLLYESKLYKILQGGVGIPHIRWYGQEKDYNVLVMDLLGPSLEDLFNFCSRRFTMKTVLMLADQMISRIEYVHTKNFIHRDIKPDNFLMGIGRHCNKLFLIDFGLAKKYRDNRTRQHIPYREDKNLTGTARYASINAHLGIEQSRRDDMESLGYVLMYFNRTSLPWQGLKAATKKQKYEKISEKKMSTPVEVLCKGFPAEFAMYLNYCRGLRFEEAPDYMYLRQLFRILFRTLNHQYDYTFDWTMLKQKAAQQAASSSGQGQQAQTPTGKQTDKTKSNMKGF
T5 sequence (Q96SW2 whole entry): as the sequence (Q96SW2 whole entry) above
T5 sequence (Q16531 whole entry partner): as the sequence (Q16531 whole entry partner) above
T4 sequence (Q9UKT9 whole entry): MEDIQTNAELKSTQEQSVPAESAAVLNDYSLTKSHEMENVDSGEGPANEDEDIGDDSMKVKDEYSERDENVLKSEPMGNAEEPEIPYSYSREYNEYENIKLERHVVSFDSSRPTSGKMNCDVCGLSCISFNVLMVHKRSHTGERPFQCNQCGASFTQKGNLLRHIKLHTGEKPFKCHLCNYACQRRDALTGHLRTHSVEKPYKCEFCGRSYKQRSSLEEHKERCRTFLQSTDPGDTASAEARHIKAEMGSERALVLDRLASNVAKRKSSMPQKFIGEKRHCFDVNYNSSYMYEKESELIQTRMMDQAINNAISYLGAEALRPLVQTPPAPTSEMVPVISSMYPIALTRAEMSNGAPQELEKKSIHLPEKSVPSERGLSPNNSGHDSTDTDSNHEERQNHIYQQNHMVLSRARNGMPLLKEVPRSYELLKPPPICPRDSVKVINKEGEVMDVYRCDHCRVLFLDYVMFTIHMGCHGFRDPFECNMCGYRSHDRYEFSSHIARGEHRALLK
T4 sequence (Q96SW2 whole entry): as the sequence (Q96SW2 whole entry) above
T4 sequence (Q16531 whole entry partner): as the sequence (Q16531 whole entry partner) above
T3 sequence (Q9UKS7 whole entry): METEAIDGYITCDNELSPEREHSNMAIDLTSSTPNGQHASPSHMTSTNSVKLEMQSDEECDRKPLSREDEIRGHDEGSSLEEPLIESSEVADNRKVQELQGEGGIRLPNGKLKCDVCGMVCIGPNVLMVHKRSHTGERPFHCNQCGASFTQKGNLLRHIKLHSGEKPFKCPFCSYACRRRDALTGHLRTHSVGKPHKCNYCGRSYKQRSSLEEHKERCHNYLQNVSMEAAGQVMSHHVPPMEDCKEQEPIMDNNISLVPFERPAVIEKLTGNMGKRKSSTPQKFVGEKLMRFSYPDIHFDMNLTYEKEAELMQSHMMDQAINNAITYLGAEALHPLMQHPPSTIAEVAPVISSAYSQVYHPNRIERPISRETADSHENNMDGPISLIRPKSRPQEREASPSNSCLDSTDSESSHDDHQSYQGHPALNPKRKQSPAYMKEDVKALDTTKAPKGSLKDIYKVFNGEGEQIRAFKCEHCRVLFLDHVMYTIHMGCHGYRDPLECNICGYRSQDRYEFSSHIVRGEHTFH
T3 sequence (Q96SW2 whole entry): as the sequence (Q96SW2 whole entry) above
T3 sequence (Q16531 whole entry partner): as the sequence (Q16531 whole entry partner) above
T2 sequence (Q13422 whole entry): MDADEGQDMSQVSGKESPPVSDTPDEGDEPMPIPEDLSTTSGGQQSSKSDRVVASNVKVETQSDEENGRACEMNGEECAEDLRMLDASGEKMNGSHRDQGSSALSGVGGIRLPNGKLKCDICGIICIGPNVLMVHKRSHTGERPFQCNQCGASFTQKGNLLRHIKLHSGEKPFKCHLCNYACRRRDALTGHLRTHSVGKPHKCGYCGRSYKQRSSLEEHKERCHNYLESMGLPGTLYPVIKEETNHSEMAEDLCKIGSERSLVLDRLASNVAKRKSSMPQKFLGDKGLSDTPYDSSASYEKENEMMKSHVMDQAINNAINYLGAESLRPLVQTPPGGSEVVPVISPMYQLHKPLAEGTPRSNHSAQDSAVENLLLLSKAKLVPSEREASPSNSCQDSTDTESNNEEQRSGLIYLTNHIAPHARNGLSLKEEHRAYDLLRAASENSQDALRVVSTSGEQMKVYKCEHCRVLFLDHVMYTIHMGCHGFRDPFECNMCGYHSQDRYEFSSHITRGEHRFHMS
T2 sequence (Q96SW2 whole entry): as the sequence (Q96SW2 whole entry) above
T2 sequence (Q16531 whole entry partner): as the sequence (Q16531 whole entry partner) above

| Structure (SMILES) | Weel substrate protein remaining % (WEE1; [1]) | IKZF 1 substrate protein remaining % (IKZF1; [1]) | IKZF2 substrate protein remaining % (IKZF2; [1]) | IKZF3 substrate protein remaining % (IKZF3; [1]) | CK1a substrate protein remaining % (CK1α; [1]) | GSPT1 substrate protein remaining % (GSPT1; [1]) | Weel substrate protein remaining % (WEE1; [2]) | IKZF 1 substrate protein remaining % (IKZF1; [2]) | IKZF2 substrate protein remaining % (IKZF2; [2]) | IKZF3 substrate protein remaining % (IKZF3; [2]) | CK1a substrate protein remaining % (CK1α; [2]) | GSPT1 substrate protein remaining % (GSPT1; [2]) |
| --- | --- | --- | --- | --- | --- | --- | --- | --- | --- | --- | --- | --- |
| O=C1CCC(N2C(=O)c3ccc(CN4CCC(N5CCOc6cc(F)ccc65)CC4)cc3C2=O)C(=O)N1 (stereo not drawn) [GT-06235, 2-(2,6-dioxopiperidin-3-yl)-5-((4-(7-fluoro-2,3-dihydro-4H-benzo[b][1,4]oxazin-4-yl)piperidin-1-yl)methyl)isoindoline-1,3-dione] | B (80%< substrate protein remaining %≤ 100%) | B (80%< substrate protein remaining %≤ 100%) | B (80%< substrate protein remaining %≤ 100%) | B (80%< substrate protein remaining %≤ 100%) | B (80%< substrate protein remaining %≤ 100%) | A (0% ≤ substrate protein remaining % ≤ 80%) |  |  |  |  |  |  |
| O=C1CCC(N2C(=O)c3ccc(CN4CCN(c5cccc(Cl)c5Cl)CC4)cc3C2=O)C(=O)N1 (stereo not drawn) [GT-06273, 5-((4-(2,3-dichlorophenyl)piperazin-1-yl)methyl)-2-(2,6-dioxopiperidin-3-yl)isoindoline-1,3-dione] |  |  |  |  |  |  | A (0% ≤ substrate protein remaining % ≤ 80%) | A (0% ≤ substrate protein remaining % ≤ 80%) | A (0% ≤ substrate protein remaining % ≤ 80%) | A (0% ≤ substrate protein remaining % ≤ 80%) | A (0% ≤ substrate protein remaining % ≤ 80%) | A (0% ≤ substrate protein remaining % ≤ 80%) |
| O=C1CCC(N2C(=O)c3ccc(CN4CCC(c5ccccc5F)CC4)cc3C2=O)C(=O)N1 (stereo not drawn) [GT-06373, 2-(2,6-dioxopiperidin-3-yl)-5-((4-(2-fluorophenyl)piperidin-1-yl)methyl)isoindoline-1,3-dione] |  |  |  |  |  |  | A (0% ≤ substrate protein remaining % ≤ 80%) | A (0% ≤ substrate protein remaining % ≤ 80%) | A (0% ≤ substrate protein remaining % ≤ 80%) | B (80%< substrate protein remaining %≤ 100%) | B (80%< substrate protein remaining %≤ 100%) | A (0% ≤ substrate protein remaining % ≤ 80%) |
| O=C1CCC(N2C(=O)c3ccc(CN4CCN(c5ccc(F)cc5F)CC4)cc3C2=O)C(=O)N1 (stereo not drawn) [GT-06361, 5-((4-(2,4-difluorophenyl)piperazin-1-yl)methyl)-2-(2,6-dioxopiperidin-3-yl)isoindoline-1,3-dione] |  |  |  |  |  |  | B (80%< substrate protein remaining %≤ 100%) | B (80%< substrate protein remaining %≤ 100%) | B (80%< substrate protein remaining %≤ 100%) | B (80%< substrate protein remaining %≤ 100%) | B (80%< substrate protein remaining %≤ 100%) | A (0% ≤ substrate protein remaining % ≤ 80%) |
| O=C1CCC(N2C(=O)c3ccc(CN4CCN(c5ncccc5F)CC4)cc3C2=O)C(=O)N1 (stereo not drawn) [GT-06526, 2-(2,6-dioxopiperidin-3-yl)-5-((4-(3-fluoropyridin-2-yl)piperazin-1-yl)methyl)isoindoline-1,3-dione] |  |  |  |  |  |  | A (0% ≤ substrate protein remaining % ≤ 80%) | B (80%< substrate protein remaining %≤ 100%) | A (0% ≤ substrate protein remaining % ≤ 80%) | A (0% ≤ substrate protein remaining % ≤ 80%) | B (80%< substrate protein remaining %≤ 100%) | A (0% ≤ substrate protein remaining % ≤ 80%) |
| Cc1nc(C2CCN(Cc3ccc4c(c3)C(=O)N(C3CCC(=O)NC3=O)C4=O)CC2)c2c3c(sc2n1)CCCC3 (stereo not drawn) [GT-06648, 2-(2,6-dioxopiperidin-3-yl)-5-((4-(2-methyl-5,6,7,8-tetrahydrobenzo[4,5]thieno[2,3-d]pyrimidin-4-yl)piperidin-1-yl)methyl)isoindoline-1,3-dione] |  |  |  |  |  |  | A (0% ≤ substrate protein remaining % ≤ 80%) | B (80%< substrate protein remaining %≤ 100%) | A (0% ≤ substrate protein remaining % ≤ 80%) | B (80%< substrate protein remaining %≤ 100%) | A (0% ≤ substrate protein remaining % ≤ 80%) | A (0% ≤ substrate protein remaining % ≤ 80%) |
| O=C1CCC(N2C(=O)c3ccc(CN4CCN(c5ncnc6sccc56)CC4)cc3C2=O)C(=O)N1 (stereo not drawn) [GT-06303, 2-(2,6-dioxopiperidin-3-yl)-5-((4-(thieno[2,3-d]pyrimidin-4-yl)piperazin-1-yl)methyl)isoindoline-1,3-dione] |  |  |  |  |  |  | B (80%< substrate protein remaining %≤ 100%) | A (0% ≤ substrate protein remaining % ≤ 80%) | B (80%< substrate protein remaining %≤ 100%) | B (80%< substrate protein remaining %≤ 100%) | B (80%< substrate protein remaining %≤ 100%) | B (80%< substrate protein remaining %≤ 100%) |
| Cc1ccc(Cl)cc1N1CCN(Cc2ccc3c(c2)C(=O)N(C2CCC(=O)NC2=O)C3=O)CC1 (stereo not drawn) [GT-06367, 5-((4-(5-chloro-2-methylphenyl)piperazin-1-yl)methyl)-2-(2,6-dioxopiperidin-3-yl)isoindoline-1,3-dione] |  |  |  |  |  |  | A (0% ≤ substrate protein remaining % ≤ 80%) | B (80%< substrate protein remaining %≤ 100%) | A (0% ≤ substrate protein remaining % ≤ 80%) | A (0% ≤ substrate protein remaining % ≤ 80%) | B (80%< substrate protein remaining %≤ 100%) | A (0% ≤ substrate protein remaining % ≤ 80%) |
| O=C1CCC(N2C(=O)c3ccc(CN4CCN(c5c(F)cccc5F)CC4)cc3C2=O)C(=O)N1 (stereo not drawn) [GT-06363, 5-((4-(2,6-difluorophenyl)piperazin-1-yl)methyl)-2-(2,6-dioxopiperidin-3-yl)isoindoline-1,3-dione] |  |  |  |  |  |  | B (80%< substrate protein remaining %≤ 100%) | A (0% ≤ substrate protein remaining % ≤ 80%) | B (80%< substrate protein remaining %≤ 100%) | B (80%< substrate protein remaining %≤ 100%) | B (80%< substrate protein remaining %≤ 100%) | A (0% ≤ substrate protein remaining % ≤ 80%) |
| O=C1CCC(N2C(=O)c3ccc(CN4CCN(c5ccc(F)cn5)CC4)cc3C2=O)C(=O)N1 (stereo not drawn) [GT-06528, 2-(2,6-dioxopiperidin-3-yl)-5-((4-(5-fluoropyridin-2-yl)piperazin-1-yl)methyl)isoindoline-1,3-dione] |  |  |  |  |  |  | A (0% ≤ substrate protein remaining % ≤ 80%) | B (80%< substrate protein remaining %≤ 100%) | A (0% ≤ substrate protein remaining % ≤ 80%) | A (0% ≤ substrate protein remaining % ≤ 80%) | B (80%< substrate protein remaining %≤ 100%) | A (0% ≤ substrate protein remaining % ≤ 80%) |
| O=C1CCC(N2C(=O)c3ccc(CN4CCC(c5ccccc5C(F)(F)F)CC4)cc3C2=O)C(=O)N1 (stereo not drawn) [GT-06375, 2-(2,6-dioxopiperidin-3-yl)-5-((4-(2-(trifluoromethyl)phenyl)piperidin-1-yl)methyl)isoindoline-1,3-dione] |  |  |  |  |  |  | A (0% ≤ substrate protein remaining % ≤ 80%) | A (0% ≤ substrate protein remaining % ≤ 80%) | A (0% ≤ substrate protein remaining % ≤ 80%) | B (80%< substrate protein remaining %≤ 100%) | B (80%< substrate protein remaining %≤ 100%) | A (0% ≤ substrate protein remaining % ≤ 80%) |
